Reference: patent publication US20240319211A1, “CONTENT CONVERSION METHOD OF FREE COMPONENTS BY TRANSFORMING ULTRAFILTRATION TO EQUILIBRIUM DIALYSIS” (HEFEI NOVA-MS BIOTECH MEDICAL EQUIPMENT CO., LTD, priority 2022, published 2024)
Where “and” joins values, the source holds several entries; their conditions need not be identical. Equal entries are not always repeated.

What was measured:
[1] = FT3 in serum by equilibrium dialysis (ED), LC-MS/MS; conditions: for Concentration ED, Average: average of 10 samples; for Concentration ED: serum, individual samples No. 1-10
Description: (§1) In a method in this embodiment, ultrafiltration and equilibrium dialysis are performed to separate free triiodothyronine (FT3) at 20° C., 25° C., 30° C., and 37° C., respectively. In practice, another temperature value may be used. Where
Equilibrium dialysis: 200 μL 4-hydroxyethyl piperazine ethanesulfonic acid solution is placed on the buffer side of the equilibrium plate, 200 μL serum is placed on the sample side. Subsequently, the equilibrium dialysis plate is dialyzed at 20° C., 25° C., 30° C., and 37° C. for 22 h, respectively.
Internal standard precipitation: 100 μL internal standard solution is added to 100 μL dialysate and vortexed well for 3 min. Then, centrifugation is performed at 4° C. and 12000 rpm for 10 min.
(§2) After the free T3 is separated by using ultrafiltration and equilibrium dialysis, the free T3 is detected by the following high-performance liquid chromatography tandem mass spectrometry parameters:
(§3) chromatographic column: Acquity UPLC BEH C18 (2.1×50 mm, 1.7 μm); column oven temperature: 30° C.; mobile phases: 0.1% formic acid aqueous solution (A)˜0.1% formic acid methanol (B); and gradient elution: […]
(§4) ion source: electrospray ion source in positive ion mode; spray voltage: 5500 V; ion source temperature: 550° C.; GS1: 50 psi; GS2: 50 psi; curtain gas: 30 psi; and multiple reaction monitoring: […]

[2] = FT3 in serum by ultrafiltration (UF), LC-MS/MS; conditions: for Concentration UF, Average: average of 10 samples; for Concentration UF: serum, individual samples No. 1-10
Description: as §1
Ultrafiltration: 100 μL 4-hydroxyethyl piperazine ethanesulfonic acid solution is added to a 100 μL serum, and the solution is mixed well by pipettes. Subsequently, the obtained mixture is transferred to the activated ultrafiltration tube and centrifuged at 20° C., 25° C., 30° C., and 37° C., and 2000 g for 1 h, respectively.
Internal standard precipitation: 100 μL internal standard solution is added to 100 μL ultrafiltrate, and vortexed well for 3 min. Then, centrifugation is performed at 4° C. and 12000 rpm for 10 min.
as §2, §3, §4

[3] = FT4 in serum by equilibrium dialysis (ED), LC-MS/MS; assay type: in vitro ADME, human; conditions: for Concentration ED, Average: average of 10 samples; for Concentration ED: serum, individual samples No. 1-10
Source text: (§5) In practice, other temperatures can also be used. […] Where

[4] = FT4 in serum by ultrafiltration (UF), LC-MS/MS; assay type: in vitro ADME, human; conditions: for Concentration UF, Average: average of 10 samples; for Concentration UF: serum, individual samples No. 1-10
Source text: as §5

[5] = free testosterone in serum by ultrafiltration (UF), LC-MS/MS; conditions: for Concentration UF, Average: average of 10 samples; for Concentration UF: serum, individual samples No. 1-10
Description: (§6) In practice, other temperatures can also be used. Subsequently, high-performance liquid chromatography tandem mass spectrometry is used for detection, and results are shown in Table 1. Where
Ultrafiltration: 900 μL 4-hydroxyethyl piperazine ethanesulfonic acid solution is added to 300 μL serum, and the solution is mixed well by pipettes. Subsequently, the obtained mixture is transferred to the activated ultrafiltration tube and centrifuged at 20° C., 25° C., 30° C., and 37° C., and 2000 g for 1 h, respectively.
Solid-phase extraction: 20 μL internal standard solution is added to 600 μL ultrafiltrate, and vortexed well. The obtained mixture is added to an activated HLB solid-phase extraction: conditioning is performed twice by 300 μL 10% methanol aqueous solution, elution is performed twice by 300 μL 90% methanol aqueous solution, eluent is merged and blown to dry by nitrogen, and finally, the obtained product is redissolved by 100 μL 50% methanol aqueous solution.
(§7) Chromatographic column: Acquity UPLC BEH C18 (2.1×50 mm, 1.7 μm); column oven temperature: 40° C.; mobile phases: 0.1% formic acid 2 mM ammonium acetate aqueous solution (A)˜methanol (B); and gradient elution: […]
as §4

[6] = free testosterone in serum by equilibrium dialysis (ED), LC-MS/MS; conditions: for Concentration ED, Average: average of 10 samples; for Concentration ED: serum, individual samples No. 1-10
Description: as §6
Equilibrium dialysis: 200 μL 4-hydroxyethyl piperazine ethanesulfonic acid solution is placed on the buffer side of the equilibrium dialysis plate, 200 μL serum is placed on the sample side. Subsequently, the equilibrium dialysis plate is dialyzed at 20° C., 25° C., 30° C., and 37° C. for 22 h, respectively.
Solid-phase extraction: 20 μL internal standard solution is added to 200 μL dialysate, and vortexed well. The obtained mixture is added to an activated HLB solid-phase extraction: conditioning is performed twice by 300 μL 10% methanol aqueous solution, elution is performed twice by using 300 μL 90% methanol aqueous solution, eluent is merged and blown to dry by nitrogen, and finally, the obtained product is redissolved by 100 μL 50% methanol aqueous solution.
as §7, §4

N[C@@H](Cc1cc(I)c(Oc2ccc(O)c(I)c2)c(I)c1)C(=O)O [FT3, triiodothyronine]
Concentration ED, Average ([1]; 20° C.): 2.40 pg/mL
Concentration ED ([1]; 20° C.): 2.45 pg/mL and 2.62 pg/mL and 2.25 pg/mL and 2.35 pg/mL and 2.48 pg/mL and 2.36 pg/mL and 2.27 pg/mL and 2.46 pg/mL and 2.42 pg/mL and 2.31 pg/mL
Concentration ED, Average ([1]; 25° C.): 2.61 pg/mL
Concentration ED ([1]; 25° C.): 2.65 pg/mL and 2.75 pg/mL and 2.52 pg/mL and 2.61 pg/mL and 2.48 pg/mL and 2.54 pg/mL and 2.68 pg/mL and 2.70 pg/mL and 2.63 pg/mL and 2.57 pg/mL
Concentration ED, Average ([1]; 30° C.): 2.77 pg/mL
Concentration ED ([1]; 30° C.): 2.72 pg/mL and 2.65 pg/mL and 2.85 pg/mL (2×) and 2.88 pg/mL and 2.68 pg/mL and 2.76 pg/mL and 2.78 pg/mL (2×) and 2.71 pg/mL
2nd conc. (ED) ([1]; 37° C. equilibrium dialysis 22 h, 60 different serum specimens): 3.05 and 3.18 and 3.17 and 3.22 and 3.04 and 3.24 and 3.19 and 3.48
Concentration ED, Average ([1]; 37° C.): 3.22 pg/mL
Concentration ED ([1]; 37° C.): 3.13 pg/mL and 3.22 pg/mL and 3.04 pg/mL and 3.32 pg/mL and 3.15 pg/mL and 3.31 pg/mL (2×) and 3.34 pg/mL and 3.28 pg/mL and 3.12 pg/mL
Concentration UF, Average ([2]; 20° C.): 2.34 pg/mL
Concentration UF ([2]; 20° C.): 2.54 pg/mL and 2.25 pg/mL and 2.36 pg/mL (2×) and 2.41 pg/mL and 2.32 pg/mL and 2.28 pg/mL and 2.17 pg/mL and 2.52 pg/mL and 2.23 pg/mL
Concentration UF, Average ([2]; 25° C.): 2.58 pg/mL
Concentration UF ([2]; 25° C.): 2.52 pg/mL and 2.62 pg/mL and 2.45 pg/mL and 2.68 pg/mL and 2.58 pg/mL and 2.46 pg/mL and 2.57 pg/mL and 2.65 pg/mL and 2.71 pg/mL and 2.53 pg/mL
Concentration UF, Average ([2]; 30° C.): 2.73 pg/mL
Concentration UF ([2]; 30° C.): 2.68 pg/mL and 2.75 pg/mL (2×) and 2.82 pg/mL and 2.66 pg/mL and 2.78 pg/mL and 2.58 pg/mL and 2.84 pg/mL and 2.72 pg/mL and 2.67 pg/mL
Concentration UF, Average ([2]; 37° C.): 3.19 pg/mL
Concentration UF ([2]; 37° C.): 3.05 pg/mL (2×) and 3.24 pg/mL and 3.13 pg/mL and 3.48 pg/mL and 3.20 pg/mL and 3.18 pg/mL and 3.27 pg/mL and 3.08 pg/mL and 3.17 pg/mL

N[C@@H](Cc1cc(I)c(Oc2cc(I)c(O)c(I)c2)c(I)c1)C(=O)O [FT4, thyroxine]
Concentration ED, Average ([3]; 20° C.): 6.83 pg/mL
Concentration ED ([3]; 20° C.): 7.05 pg/mL (2×) and 6.91 pg/mL and 6.85 pg/mL and 6.76 pg/mL and 6.71 pg/mL and 6.42 pg/mL and 6.83 pg/mL and 6.84 pg/mL and 6.90 pg/mL
Concentration ED, Average ([3]; 25° C.): 8.53 pg/mL
Concentration ED ([3]; 25° C.): 8.37 pg/mL and 8.33 pg/mL and 8.83 pg/mL and 8.05 pg/mL and 8.24 pg/mL and 8.94 pg/mL and 8.47 pg/mL and 8.69 pg/mL and 8.73 pg/mL and 8.65 pg/mL
Concentration ED, Average ([3]; 30° C.): 10.80 pg/mL
Concentration ED ([3]; 30° C.): 10.91 pg/mL and 11.07 pg/mL and 11.18 pg/mL and 10.63 pg/mL (2×) and 10.46 pg/mL and 10.98 pg/mL and 10.74 pg/mL and 10.67 pg/mL and 10.75 pg/mL
Concentration ED, Average ([3]; 37° C.): 14.22 pg/mL
Concentration ED ([3]; 37° C.): 14.17 pg/mL and 14.64 pg/mL and 13.61 pg/mL and 14.22 pg/mL and 14.67 pg/mL and 14.63 pg/mL and 13.94 pg/mL and 14.15 pg/mL and 14.11 pg/mL and 14.06 pg/mL
Concentration UF, Average ([4]; 20° C.): 6.85 pg/mL
Concentration UF ([4]; 20° C.): 7.21 pg/mL and 6.77 pg/mL and 6.78 pg/mL (2×) and 6.40 pg/mL and 6.94 pg/mL and 6.85 pg/mL and 7.01 pg/mL and 6.90 pg/mL and 6.81 pg/mL
Concentration UF, Average ([4]; 25° C.): 8.51 pg/mL
Concentration UF ([4]; 25° C.): 7.92 pg/mL and 8.97 pg/mL and 8.74 pg/mL and 8.58 pg/mL and 8.14 pg/mL and 8.06 pg/mL and 8.57 pg/mL and 8.72 pg/mL and 8.63 pg/mL and 8.76 pg/mL
Concentration UF, Average ([4]; 30° C.): 10.58 pg/mL
Concentration UF ([4]; 30° C.): 10.73 pg/mL and 9.82 pg/mL and 10.55 pg/mL and 10.61 pg/mL and 10.97 pg/mL and 10.75 pg/mL and 10.82 pg/mL and 10.57 pg/mL and 10.33 pg/mL and 10.63 pg/mL
Concentration UF, Average ([4]; 37° C.): 14.00 pg/mL
Concentration UF ([4]; 37° C.): 13.45 pg/mL and 13.82 pg/mL and 14.14 pg/mL and 13.57 pg/mL and 14.22 pg/mL and 14.58 pg/mL and 13.74 pg/mL and 14.05 pg/mL and 14.26 pg/mL and 14.16 pg/mL

C[C@]12CC[C@H]3[C@@H](CCC4=CC(=O)CC[C@@]43C)[C@@H]1CC[C@@H]2O [free testosterone, testosterone]
Concentration UF, Average ([5]; 20° C.): 4.12 pg/mL
Concentration UF ([5]; 20° C.): 4.26 pg/mL and 4.29 pg/mL and 4.01 pg/mL and 4.38 pg/mL and 3.98 pg/mL and 3.92 pg/mL and 4.15 pg/mL and 4.12 pg/mL and 3.97 pg/mL and 4.07 pg/mL
Concentration UF, Average ([5]; 25° C.): 4.50 pg/mL
Concentration UF ([5]; 25° C.): 4.37 pg/mL and 4.64 pg/mL (2×) and 4.51 pg/mL (2×) and 4.45 pg/mL and 4.39 pg/mL and 4.48 pg/mL and 4.43 pg/mL and 4.61 pg/mL
Concentration UF, Average ([5]; 30° C.): 4.81 pg/mL
Concentration UF ([5]; 30° C.): 4.69 pg/mL and 4.96 pg/mL (2×) and 4.83 pg/mL and 4.79 pg/mL and 4.58 pg/mL and 4.85 pg/mL and 4.91 pg/mL and 4.74 pg/mL and 4.77 pg/mL
Concentration UF, Average ([5]; 37° C.): 5.16 pg/mL
Concentration UF ([5]; 37° C.): 5.12 pg/mL and 5.28 pg/mL and 5.30 pg/mL and 5.04 pg/mL and 5.16 pg/mL (2×) and 5.18 pg/mL and 5.24 pg/mL and 5.03 pg/mL and 5.07 pg/mL
Concentration ED, Average ([6]; 20° C.): 4.08 pg/mL
Concentration ED ([6]; 20° C.): 4.05 pg/mL (2×) and 4.17 pg/mL and 3.94 pg/mL and 4.21 pg/mL and 3.85 pg/mL and 4.18 pg/mL and 4.01 pg/mL and 4.16 pg/mL and 4.22 pg/mL
Concentration ED, Average ([6]; 25° C.): 4.55 pg/mL
Concentration ED ([6]; 25° C.): 4.75 pg/mL and 4.61 pg/mL and 4.48 pg/mL and 4.56 pg/mL and 4.41 pg/mL and 4.62 pg/mL and 4.57 pg/mL and 4.42 pg/mL and 4.50 pg/mL and 4.54 pg/mL
Concentration ED, Average ([6]; 30° C.): 4.93 pg/mL
Concentration ED ([6]; 30° C.): 5.04 pg/mL and 5.01 pg/mL and 4.95 pg/mL and 5.02 pg/mL and 4.85 pg/mL and 4.87 pg/mL and 4.91 pg/mL and 4.98 pg/mL and 4.84 pg/mL and 4.82 pg/mL
Concentration ED, Average ([6]; 37° C.): 5.21 pg/mL
Concentration ED ([6]; 37° C.): 5.40 pg/mL and 4.95 pg/mL and 5.23 pg/mL and 5.42 pg/mL and 5.12 pg/mL and 5.32 pg/mL and 5.22 pg/mL and 5.27 pg/mL and 5.13 pg/mL and 5.07 pg/mL
